Laboratory results as given in PMC5191990 (Bioorganic & medicinal chemistry, 2016).
Counter-ions that a name gives are not always drawn. Values belong to the compound of their own block, whether it stands above or below them.

Tests used:
Parental OVCAR-8 cells = assay: Cell proliferation; format: cell-based; conditions: Homo sapiens, OVCAR-8, 96 h, read-out: Parental OVCAR-8 IC50 (µM) ± SD
[1] = biological target: T1, purified bovine brain tubulin (Bos taurus, UniProt P81947+Q6B856); assay: Tubulin assembly assay; format: biochemical; conditions: ratio of tubulin assembly IC50 vs 5
T1 sequence (P81947 whole entry): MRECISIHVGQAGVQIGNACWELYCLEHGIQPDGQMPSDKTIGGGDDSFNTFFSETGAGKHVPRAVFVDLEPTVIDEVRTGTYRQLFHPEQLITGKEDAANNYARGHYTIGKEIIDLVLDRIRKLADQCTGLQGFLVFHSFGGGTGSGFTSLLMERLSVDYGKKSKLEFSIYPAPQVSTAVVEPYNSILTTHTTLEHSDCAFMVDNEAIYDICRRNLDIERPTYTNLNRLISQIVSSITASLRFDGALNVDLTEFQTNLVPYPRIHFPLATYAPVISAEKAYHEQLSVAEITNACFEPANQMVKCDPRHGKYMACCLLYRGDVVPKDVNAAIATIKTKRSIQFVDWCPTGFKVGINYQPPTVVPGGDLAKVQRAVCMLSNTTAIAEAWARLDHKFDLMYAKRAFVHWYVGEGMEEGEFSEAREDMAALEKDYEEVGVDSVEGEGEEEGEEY
T1 sequence (Q6B856 whole entry): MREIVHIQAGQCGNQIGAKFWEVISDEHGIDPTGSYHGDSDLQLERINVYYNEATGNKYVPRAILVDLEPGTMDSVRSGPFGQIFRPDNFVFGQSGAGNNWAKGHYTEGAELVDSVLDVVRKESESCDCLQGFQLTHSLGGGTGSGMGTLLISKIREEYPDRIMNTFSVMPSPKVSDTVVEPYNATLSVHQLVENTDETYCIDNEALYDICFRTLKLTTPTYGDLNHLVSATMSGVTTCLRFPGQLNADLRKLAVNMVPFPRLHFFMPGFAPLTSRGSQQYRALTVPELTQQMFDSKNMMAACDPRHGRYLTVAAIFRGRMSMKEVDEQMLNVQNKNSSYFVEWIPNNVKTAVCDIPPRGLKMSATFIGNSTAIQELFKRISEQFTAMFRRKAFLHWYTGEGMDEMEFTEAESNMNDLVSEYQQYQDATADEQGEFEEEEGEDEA

[2] = test system: β-III overexpressing HeLa cells; assay: Cell proliferation; format: cell-based
WT HeLa cells = assay: Cell proliferation; format: cell-based; conditions: Homo sapiens, 96 h, read-out: WT HeLa IC50 (µM) ± SD
[3] = test system: BLBC MDA-MB-435 and U251 glioma xenografts, 4T1 triple negative breast allograft; conditions: cited from earlier work
[4] = biological target: T1, purified bovine brain tubulin; conditions: read-out: tubulin assembly IC50 (µM) ± SD; cited from earlier work
[5] = test system: Pgp overexpressing NCI/ADR-RES cells; assay: Cell proliferation; format: cell-based; conditions: Homo sapiens, 96 h, read-out: Pgp overexpressing NCI/ADR-RES IC50 (µM) ± SD

Structure (SMILES): COc1ccc2c(c1)CCCN2c1nc(C)nc2c(Cc3ccccc3)c[nH]c12 [5·HCl, 1-(7-benzyl-2-methyl-5H-pyrrolo[3,2-d]pyrimidin-4-yl)-6-methoxy-1,2,3,4-tetrahydroquinoline hydrochloride]
- IC50 (Parental OVCAR-8 cells): 0.12 ± 0.004 µM

Structure (SMILES): COc1ccc(N(C)c2nc(C)nc3c(Cc4ccccc4)cn(C)c23)cc1.Cl [7·HCl, 7-benzyl-N-(4-methoxyphenyl)-N,2,5-trimethyl-5H-pyrrolo[3,2-d]pyrimidin-4-amine hydrochloride]
- fold more potent than 5 in tubulin assembly [1]: ~7 fold
- fold less potent in βIII-tubulin overexpressing HeLa than in wild type HeLa ([2]; isogenic HeLa cell line pair): equal potency

Structure (SMILES): COc1ccc(/C=C\c2cc(OC)c(OC)c(OC)c2)cc1O [CA, combretastatin A-4]
- IC50 (WT HeLa cells): 0.0018 ± 0.0004 µM

Structure (SMILES): COc1ccc(N(C)c2nc(C)nc3c(Cc4ccccc4)c[nH]c23)cc1 [Compound 3]
- toxicity to animals [3]: without overt toxicity
- tumor size and vascularity ([3]; two flank xenograft models and 4T1 orthotopic allograft): reduced tumor size and vascularity
- IC50 [4]: 21 ± 1 µM

- IC50 ([2]; Homo sapiens, HeLa, 96 h, read-out: β-III overexpressing HeLa IC50 (µM) ± SD): 0.016 ± 0.001 µM
Structure (SMILES): CC(=O)O[C@H]1C(=O)[C@@]2(C)[C@H]([C@H](OC(=O)c3ccccc3)[C@]3(O)C[C@H](OC(=O)[C@H](O)[C@@H](NC(=O)c4ccccc4)c4ccccc4)C(C)=C1C3(C)C)[C@]1(OC(C)=O)CO[C@@H]1C[C@@H]2O [Paclitaxel, paclitaxel]
- IC50 (Parental OVCAR-8 cells): 0.005 ± 0.001 µM
- IC50 [5]: 2.5 µM
